Reference: patent publication US12102089B2, “Method for inactivating mold spores” (DSM IP ASSETS B.V., priority 2017, dated 2024)

Test system: in-house strain of Aspergillus niger
Assay: Heat treatment of in-house Aspergillus niger spores in ice tea with natamycin, visual growth
Type: cell-based
Design: key to growth or no growth: growth (+); no growth (−)
Procedure: Commercially available ice tea (Lipton, peach flavor, non-carbonated, 1.5 L) was adjusted to high water hardness by adding 1 ml of a solution of 39 g CaCl2 and 27 g MgCl2 added to 934 g water. ⅓ of this ice tea preparation (the pH of which was 3.15) was left as-such, ⅓ of the preparation was enriched with 5 ppm natamycin and ⅓ of the preparation was enriched with 10 ppm natamycin. Samples of 5 ml were made from each preparation in 15 ml sterile plastic tubes. Of each preparation 8 samples were pre-heated to the desired pasteurization temperature using a water bath. Temperatures used were RT, 60, 65, 70, 75, 80, 85 and 90° C. When the desired temperature was reached, 100 μl of a 2500 spores/ml spore suspension of Aspergillus niger ATCC 9029AA was added to each tube. Subsequently, the samples were kept for 30 seconds at the temperature in question in the water bath. Next, the samples were cooled on ice to a temperature of 25° C. Samples were incubated at 25° C. and visually examined for growth (formation of mold flakes or turbidity) for two months. Additionally, samples were enumerated according to ISO protocol 21527-1.2008 on day 0 (before heat treatment) and day 1 (after heat treatment) to count immediate loss of viability. […] For the results, see Table 1. […] For comparative reasons, Example 1 was repeated with an in-house strain of Aspergillus niger. […] For the results, see Table 2.

Q: Which “growth or no growth” value (60°C, 5 ppm, day 1) does the source give for `C[C@@H]1C/C=C/C=C/C=C/C=C/[C@H](O[C@@H]2O[C@H](C)[C@@H](O)[C@H](N)[C@@H]2O)C[C@@H]2O[C@](O)(C[C@@H](O)C[C@H]3O[C@@H]3/C=C/C(=O)O1)C[C@H](O)[C@H]2C(=O)O` [natamycin] here?
A: Its value is “−”.

Q: And the “growth or no growth” value (60°C, 5 ppm, day 2)?
A: Its value is “−”.

Q: And the “growth or no growth” value (60°C, 5 ppm, day 3)?
A: Its value is “−”.

Q: What about the “growth or no growth” value (60°C, 5 ppm, day 4) of the same molecule?
A: The value was “−”.

Q: And the “growth or no growth” value (60°C, 5 ppm, day 5)?
A: Its value is “−”.

Q: And the “growth or no growth” value (60°C, 5 ppm, day 6)?
A: The value was “−”.

Q: What about the “growth or no growth” value (60°C, 5 ppm, day 7) of the same molecule?
A: The value was “+”.

Q: What about the “growth or no growth” value (60°C, 5 ppm, day 8) of the same molecule?
A: The value was “+”.

Q: What about the “growth or no growth” value (60°C, 5 ppm, day 9) of the same molecule?
A: The value was “+”.

Q: And the “growth or no growth” value (60°C, 5 ppm, day 10)?
A: The value was “+”.

Q: What about the “growth or no growth” value (60°C, 5 ppm, day 11) of the same molecule?
A: The value was “+”.

Q: What about the “growth or no growth” value (60°C, 5 ppm, day 12) of the same molecule?
A: The value was “+”.

Q: What about the “growth or no growth” value (60°C, 5 ppm, day 13) of the same molecule?
A: The value was “+”.

Q: And the “growth or no growth” value (60°C, 5 ppm, day 14)?
A: The value was “+”.

Q: And the “growth or no growth” value (60°C, 10 ppm, day 1)?
A: Its value is “−”.

Q: What about the “growth or no growth” value (60°C, 10 ppm, day 2) of the same molecule?
A: Its value is “−”.

Q: And the “growth or no growth” value (60°C, 10 ppm, day 3)?
A: Its value is “−”.

Q: What about the “growth or no growth” value (60°C, 10 ppm, day 4) of the same molecule?
A: Its value is “−”.

Q: And the “growth or no growth” value (60°C, 10 ppm, day 5)?
A: The value was “−”.

Q: What about the “growth or no growth” value (60°C, 10 ppm, day 6) of the same molecule?
A: Its value is “−”.

Q: What about the “growth or no growth” value (60°C, 10 ppm, day 7) of the same molecule?
A: Its value is “−”.

Q: What about the “growth or no growth” value (60°C, 10 ppm, day 8) of the same molecule?
A: Its value is “−”.

Q: And the “growth or no growth” value (60°C, 10 ppm, day 9)?
A: Its value is “−”.

Q: What about the “growth or no growth” value (60°C, 10 ppm, day 10) of the same molecule?
A: Its value is “−”.

Q: And the “growth or no growth” value (60°C, 10 ppm, day 11)?
A: The value was “+”.

Q: And the “growth or no growth” value (60°C, 10 ppm, day 12)?
A: The value was “+”.

Q: And the “growth or no growth” value (60°C, 10 ppm, day 13)?
A: Its value is “+”.

Q: And the “growth or no growth” value (60°C, 10 ppm, day 14)?
A: The value was “+”.

Q: What about the germination (65° C., 70° C. and 80° C., in the presence of natamycin) of the same molecule?
A: Its germination is “no germination occurred”.

Q: What about the “growth or no growth” value (65°C, 5 ppm, day 1) of the same molecule?
A: Its value is “−”.

Q: What about the “growth or no growth” value (65°C, 5 ppm, day 2) of the same molecule?
A: The value was “−”.

Q: What about the “growth or no growth” value (65°C, 5 ppm, day 3) of the same molecule?
A: The value was “−”.

Q: And the “growth or no growth” value (65°C, 5 ppm, day 4)?
A: The value was “−”.

Q: And the “growth or no growth” value (65°C, 5 ppm, day 5)?
A: The value was “−”.

Q: And the “growth or no growth” value (65°C, 5 ppm, day 6)?
A: Its value is “−”.

Q: What about the “growth or no growth” value (65°C, 5 ppm, day 7) of the same molecule?
A: The value was “−”.

Q: What about the “growth or no growth” value (65°C, 5 ppm, day 8) of the same molecule?
A: Its value is “−”.

Q: And the “growth or no growth” value (65°C, 5 ppm, day 9)?
A: Its value is “−”.

Q: And the “growth or no growth” value (65°C, 5 ppm, day 10)?
A: Its value is “−”.

Q: And the “growth or no growth” value (65°C, 5 ppm, day 11)?
A: The value was “−”.

Q: What about the “growth or no growth” value (65°C, 5 ppm, day 12) of the same molecule?
A: Its value is “−”.

Q: What about the “growth or no growth” value (65°C, 5 ppm, day 13) of the same molecule?
A: The value was “−”.

Q: And the “growth or no growth” value (65°C, 5 ppm, day 14)?
A: The value was “−”.

Q: What about the “growth or no growth” value (65°C, 10 ppm, day 1) of the same molecule?
A: Its value is “−”.

Q: What about the “growth or no growth” value (65°C, 10 ppm, day 2) of the same molecule?
A: Its value is “−”.

Q: And the “growth or no growth” value (65°C, 10 ppm, day 3)?
A: Its value is “−”.

Q: And the “growth or no growth” value (65°C, 10 ppm, day 4)?
A: Its value is “−”.

Q: What about the “growth or no growth” value (65°C, 10 ppm, day 5) of the same molecule?
A: Its value is “−”.

Q: And the “growth or no growth” value (65°C, 10 ppm, day 6)?
A: The value was “−”.

Q: What about the “growth or no growth” value (65°C, 10 ppm, day 7) of the same molecule?
A: Its value is “−”.

Q: And the “growth or no growth” value (65°C, 10 ppm, day 8)?
A: The value was “−”.

Q: And the “growth or no growth” value (65°C, 10 ppm, day 9)?
A: The value was “−”.

Q: And the “growth or no growth” value (65°C, 10 ppm, day 10)?
A: The value was “−”.

Q: What about the “growth or no growth” value (65°C, 10 ppm, day 11) of the same molecule?
A: The value was “−”.

Q: What about the “growth or no growth” value (65°C, 10 ppm, day 12) of the same molecule?
A: Its value is “−”.

Q: And the “growth or no growth” value (65°C, 10 ppm, day 13)?
A: The value was “−”.

Q: What about the “growth or no growth” value (65°C, 10 ppm, day 14) of the same molecule?
A: Its value is “−”.

Q: What about the “growth or no growth” value (70°C, 5 ppm, day 1) of the same molecule?
A: The value was “−”.

Q: And the “growth or no growth” value (70°C, 5 ppm, day 2)?
A: Its value is “−”.

Q: What about the “growth or no growth” value (70°C, 5 ppm, day 3) of the same molecule?
A: Its value is “−”.

Q: And the “growth or no growth” value (70°C, 5 ppm, day 4)?
A: Its value is “−”.

Q: What about the “growth or no growth” value (70°C, 5 ppm, day 5) of the same molecule?
A: Its value is “−”.

Q: And the “growth or no growth” value (70°C, 5 ppm, day 6)?
A: The value was “−”.

Q: What about the “growth or no growth” value (70°C, 5 ppm, day 7) of the same molecule?
A: The value was “−”.

Q: What about the “growth or no growth” value (70°C, 5 ppm, day 8) of the same molecule?
A: The value was “−”.

Q: And the “growth or no growth” value (70°C, 5 ppm, day 9)?
A: The value was “−”.

Q: And the “growth or no growth” value (70°C, 5 ppm, day 10)?
A: Its value is “−”.

Q: And the “growth or no growth” value (70°C, 5 ppm, day 11)?
A: The value was “−”.

Q: And the “growth or no growth” value (70°C, 5 ppm, day 12)?
A: Its value is “−”.

Q: What about the “growth or no growth” value (70°C, 5 ppm, day 13) of the same molecule?
A: The value was “−”.

Q: What about the “growth or no growth” value (70°C, 5 ppm, day 14) of the same molecule?
A: Its value is “−”.

Q: What about the “growth or no growth” value (70°C, 10 ppm, day 1) of the same molecule?
A: Its value is “−”.

Q: What about the “growth or no growth” value (70°C, 10 ppm, day 2) of the same molecule?
A: Its value is “−”.

Q: And the “growth or no growth” value (70°C, 10 ppm, day 3)?
A: The value was “−”.

Q: What about the “growth or no growth” value (70°C, 10 ppm, day 4) of the same molecule?
A: The value was “−”.

Q: What about the “growth or no growth” value (70°C, 10 ppm, day 5) of the same molecule?
A: The value was “−”.

Q: And the “growth or no growth” value (70°C, 10 ppm, day 6)?
A: Its value is “−”.

Q: What about the “growth or no growth” value (70°C, 10 ppm, day 7) of the same molecule?
A: Its value is “−”.

Q: What about the “growth or no growth” value (70°C, 10 ppm, day 8) of the same molecule?
A: Its value is “−”.

Q: And the “growth or no growth” value (70°C, 10 ppm, day 9)?
A: Its value is “−”.

Q: And the “growth or no growth” value (70°C, 10 ppm, day 10)?
A: Its value is “−”.

Q: And the “growth or no growth” value (70°C, 10 ppm, day 11)?
A: Its value is “−”.

Q: And the “growth or no growth” value (70°C, 10 ppm, day 12)?
A: The value was “−”.

Q: And the “growth or no growth” value (70°C, 10 ppm, day 13)?
A: Its value is “−”.

Q: What about the “growth or no growth” value (70°C, 10 ppm, day 14) of the same molecule?
A: The value was “−”.

Q: What about the “growth or no growth” value (75°C, 5 ppm, day 1) of the same molecule?
A: The value was “−”.

Q: And the “growth or no growth” value (75°C, 5 ppm, day 2)?
A: Its value is “−”.

Q: What about the “growth or no growth” value (75°C, 5 ppm, day 3) of the same molecule?
A: Its value is “−”.

Q: And the “growth or no growth” value (75°C, 5 ppm, day 4)?
A: The value was “−”.

Q: And the “growth or no growth” value (75°C, 5 ppm, day 5)?
A: Its value is “−”.

Q: And the “growth or no growth” value (75°C, 5 ppm, day 6)?
A: The value was “−”.

Q: What about the “growth or no growth” value (75°C, 5 ppm, day 7) of the same molecule?
A: Its value is “−”.

Q: And the “growth or no growth” value (75°C, 5 ppm, day 8)?
A: Its value is “−”.

Q: What about the “growth or no growth” value (75°C, 5 ppm, day 9) of the same molecule?
A: Its value is “−”.

Q: And the “growth or no growth” value (75°C, 5 ppm, day 10)?
A: The value was “−”.

Q: And the “growth or no growth” value (75°C, 5 ppm, day 11)?
A: Its value is “−”.

Q: What about the “growth or no growth” value (75°C, 5 ppm, day 12) of the same molecule?
A: The value was “−”.

Q: And the “growth or no growth” value (75°C, 5 ppm, day 13)?
A: Its value is “−”.

Q: What about the “growth or no growth” value (75°C, 5 ppm, day 14) of the same molecule?
A: Its value is “−”.

Q: And the “growth or no growth” value (75°C, 10 ppm, day 9)?
A: The value was “−”.

Q: And the “growth or no growth” value (75°C, 10 ppm, day 10)?
A: The value was “−”.

Q: What about the germination (RT and 60° C., 5 ppm natamycin) of the same molecule?
A: Its germination is “delayed germination”.

Q: What about the germination (RT and 60° C., 10 ppm natamycin) of the same molecule?
A: Its germination is “longer delay”.
